{
  "source": "paper PMC10176505",
  "about": "“PYK-SubstitutionOME: an integrated database containing allosteric coupling, ligand affinity and mutational, structural, pathological, bioinformatic and computational information about pyruvate kinase isozymes” (Database: The Journal of Biological Databases and Curation, 2023)",
  "key": {"hLPYK [1]": {"molecular_target": "T1, hLPYK (Homo sapiens, UniProt P30613)", "T1 construct": "gene PKLR; full-length liver isozyme; homotetramer; purified or partially purified", "T1 sequence (P30613 1-543 isoform P30613-2)": "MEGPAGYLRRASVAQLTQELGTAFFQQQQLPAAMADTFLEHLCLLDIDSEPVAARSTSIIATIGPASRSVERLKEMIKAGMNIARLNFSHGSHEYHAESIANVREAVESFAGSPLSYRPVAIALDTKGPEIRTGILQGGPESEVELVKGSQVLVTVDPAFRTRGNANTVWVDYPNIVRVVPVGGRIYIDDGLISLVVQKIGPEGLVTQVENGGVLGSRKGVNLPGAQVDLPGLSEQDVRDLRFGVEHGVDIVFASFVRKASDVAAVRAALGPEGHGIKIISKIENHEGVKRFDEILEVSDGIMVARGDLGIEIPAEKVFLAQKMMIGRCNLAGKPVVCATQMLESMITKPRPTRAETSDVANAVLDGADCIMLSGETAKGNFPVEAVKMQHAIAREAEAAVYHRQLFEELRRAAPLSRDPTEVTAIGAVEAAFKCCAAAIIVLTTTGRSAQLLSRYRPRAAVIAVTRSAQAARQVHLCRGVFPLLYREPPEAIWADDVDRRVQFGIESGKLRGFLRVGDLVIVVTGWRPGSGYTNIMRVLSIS", "experiment": "enzyme kinetics, allosteric linkage analysis", "assay_type": "biochemical", "conditions": "allosteric inhibitor site; effector binding in absence of PEP; read-out: Kix-Ala", "description": "enzyme kinetics, allosteric linkage analysis on hLPYK | (ii) Kix-Ala, the binding of Ala"}, "hLPYK [2]": {"molecular_target": "T1, hLPYK", "experiment": "enzyme kinetics, allosteric linkage analysis", "assay_type": "biochemical", "conditions": "allosteric activator site; effector binding in absence of PEP"}, "rM1PYK": {"molecular_target": "T2, rM1PYK (Oryctolagus cuniculus, UniProt P11974)", "T2 construct": "gene PKM; rabbit muscle M1 isozyme; homotetramer; crystal structures", "T2 sequence (P11974 2-531)": "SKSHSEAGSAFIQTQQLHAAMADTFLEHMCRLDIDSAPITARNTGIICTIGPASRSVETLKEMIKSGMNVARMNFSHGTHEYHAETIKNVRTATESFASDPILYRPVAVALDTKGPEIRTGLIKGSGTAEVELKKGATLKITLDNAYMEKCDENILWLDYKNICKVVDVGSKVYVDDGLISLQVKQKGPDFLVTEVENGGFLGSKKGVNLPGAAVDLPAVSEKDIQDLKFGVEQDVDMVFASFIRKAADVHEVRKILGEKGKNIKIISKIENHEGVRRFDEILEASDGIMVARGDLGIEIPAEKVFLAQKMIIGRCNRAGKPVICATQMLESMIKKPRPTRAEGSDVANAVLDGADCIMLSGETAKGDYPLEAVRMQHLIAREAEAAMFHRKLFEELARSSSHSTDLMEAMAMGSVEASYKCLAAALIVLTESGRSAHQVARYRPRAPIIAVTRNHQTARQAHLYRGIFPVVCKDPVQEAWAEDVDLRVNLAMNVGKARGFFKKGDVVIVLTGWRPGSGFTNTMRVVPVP", "experiment": "X-ray crystal structure, […] Å", "assay_type": "binding", "conditions": "active site of some subunits; may stem from the crystallisation medium"}},
  "data": [
    {"smiles": "C[C@H](N)C(=O)O", "note": "[alanine]", "values": [
      {"measurement": "Kd", "setting": "hLPYK [1]", "value": 250, "unit": "µM"}
    ]},
    {"smiles": "O=P(O)(O)OC[C@H]1OC(O)(COP(=O)(O)O)[C@@H](O)[C@@H]1O", "note": "(stereo partly drawn) [fructose-1,6-bisphosphate]", "values": [
      {"measurement": "Kix-FBP", "setting": "hLPYK [2]", "value": "(iii) Kix-FBP, the binding of Fru-1,6-BP"}
    ]},
    {"smiles": "O=C(O)CCC(=O)O", "note": "[succinate]", "values": [
      {"measurement": "X-ray crystal structure, 2.2 Å", "setting": "rM1PYK", "value": "active sites are populated by either a phosphonate analogue of PEP or succinate"}
    ]}
  ]
}
